Values quoted from earlier work, collected in US7786168B2, “Phenolic acid salts of gabapentin in solid dosage forms and methods of use” (Kiel Laboratories, Inc., priority 2003, dated 2010).

Assays:
[1] = molecular target: gb1a-gb^2 heterodimer and post-synaptic GABAB receptor (Homo sapiens, UniProt Q9UBS5)
[2] = tested on: plasma proteins
[3] = in water and across a wide range of pH

Sequence of gb1a-gb^2 heterodimer and post-synaptic GABAB receptor (Q9UBS5 15-961 limits assumed): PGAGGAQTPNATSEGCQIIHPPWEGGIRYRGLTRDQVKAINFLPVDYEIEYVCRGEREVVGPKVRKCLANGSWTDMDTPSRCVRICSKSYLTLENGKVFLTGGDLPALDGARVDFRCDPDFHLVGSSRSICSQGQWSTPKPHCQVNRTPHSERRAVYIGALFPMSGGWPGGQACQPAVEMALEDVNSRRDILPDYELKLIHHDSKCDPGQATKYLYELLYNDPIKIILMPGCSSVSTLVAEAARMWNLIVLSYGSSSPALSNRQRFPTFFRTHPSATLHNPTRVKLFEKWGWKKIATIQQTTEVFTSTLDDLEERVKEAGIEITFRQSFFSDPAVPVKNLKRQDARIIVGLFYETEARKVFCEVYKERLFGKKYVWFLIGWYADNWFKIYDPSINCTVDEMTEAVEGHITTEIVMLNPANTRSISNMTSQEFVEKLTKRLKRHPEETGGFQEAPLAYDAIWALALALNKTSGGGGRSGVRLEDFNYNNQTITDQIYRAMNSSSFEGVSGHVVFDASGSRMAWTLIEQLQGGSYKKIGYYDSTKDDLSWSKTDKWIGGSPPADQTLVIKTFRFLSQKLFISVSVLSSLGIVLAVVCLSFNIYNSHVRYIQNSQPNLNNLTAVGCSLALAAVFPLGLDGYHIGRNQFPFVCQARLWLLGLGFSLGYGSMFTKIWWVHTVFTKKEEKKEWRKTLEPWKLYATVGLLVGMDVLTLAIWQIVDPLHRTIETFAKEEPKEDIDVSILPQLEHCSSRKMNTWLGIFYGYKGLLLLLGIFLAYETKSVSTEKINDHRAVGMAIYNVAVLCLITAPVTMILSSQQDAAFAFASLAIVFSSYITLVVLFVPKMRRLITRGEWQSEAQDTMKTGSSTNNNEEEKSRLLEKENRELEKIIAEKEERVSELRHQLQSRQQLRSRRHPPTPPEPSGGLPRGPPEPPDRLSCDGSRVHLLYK
Sequence of gb1a-gb^2 heterodimer and post-synaptic GABAB receptor (O75899 42-941 partner): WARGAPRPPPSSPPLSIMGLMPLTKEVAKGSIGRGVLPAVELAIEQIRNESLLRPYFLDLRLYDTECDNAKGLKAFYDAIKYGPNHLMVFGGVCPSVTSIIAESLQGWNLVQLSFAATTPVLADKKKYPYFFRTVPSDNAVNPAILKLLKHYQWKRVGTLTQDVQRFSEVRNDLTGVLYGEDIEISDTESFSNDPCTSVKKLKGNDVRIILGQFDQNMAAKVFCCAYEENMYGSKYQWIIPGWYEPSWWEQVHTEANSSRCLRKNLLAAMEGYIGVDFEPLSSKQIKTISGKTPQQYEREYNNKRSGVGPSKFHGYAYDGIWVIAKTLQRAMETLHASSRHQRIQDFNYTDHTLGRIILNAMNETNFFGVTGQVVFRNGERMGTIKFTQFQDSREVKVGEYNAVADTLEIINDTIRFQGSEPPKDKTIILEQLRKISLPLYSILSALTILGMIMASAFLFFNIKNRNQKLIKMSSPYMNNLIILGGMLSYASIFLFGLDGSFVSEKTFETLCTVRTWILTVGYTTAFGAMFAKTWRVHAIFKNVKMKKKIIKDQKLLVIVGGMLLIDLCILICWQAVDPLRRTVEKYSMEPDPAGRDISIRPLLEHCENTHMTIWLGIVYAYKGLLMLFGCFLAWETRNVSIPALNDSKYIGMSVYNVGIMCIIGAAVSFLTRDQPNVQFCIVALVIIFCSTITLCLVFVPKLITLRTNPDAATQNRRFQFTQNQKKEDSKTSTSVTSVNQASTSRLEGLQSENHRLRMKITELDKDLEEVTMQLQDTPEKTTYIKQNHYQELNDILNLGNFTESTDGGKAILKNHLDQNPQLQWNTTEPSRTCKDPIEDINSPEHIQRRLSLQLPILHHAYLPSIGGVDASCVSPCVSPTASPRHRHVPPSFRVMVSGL

With `NCC1(CC(=O)O)CCCCC1` [gabapentin, 1-(aminomethyl) cyclohexaneacetic acid] as the compound, how does the agonist activity [1] read?
The agonist activity was “selective agonist”.

What about the “time of peak plasma gabapentin concentrations” value (adults, post-dose) of the same compound?
The value was 2 to 3 h.

What about the absolute bioavailability (after administration of 300 mg, dose-dependent) of the same compound?
The absolute bioavailability was “approximately 60%”.

What about the metabolism (in vivo) of the same compound?
Its metabolism is “not metabolized”.

What about the route of elimination (in vivo) of the same compound?
The route of elimination was “eliminated via glomerular filtration”.

And the “crossing of the blood-brain barrier” value (unlike GABA)?
The value was “able to cross the blood-brain barrier”.

What about the plasma protein binding [2] of the same compound?
The plasma protein binding was “does not bind to plasma proteins”.

What about the solubility [3] of the same compound?
The solubility was “freely soluble”.
